According to patent US20090169474A1, “METHOD FOR NONINVASNELY AND QUANTITATIVELY MONITORING THERAPEUTIC AND DIAGNOSTIC TRANSGENE EXPRESSION INDUCED BY EX VNO AND IN VNO GENE TARGETING IN ORGANS, TISSUES AND CELLS” (The Regentsf of the University of California, priority 2006, published 2009):

Key:
[1] = test system: HSV1-sr39tk reporter gene expression in cardiac allografts; experiment: Micro-PET imaging of [18F]FHBG / [18F]FDG accumulation; type: in vivo; conditions: recipient rabbit with gene transfected donor heart in the neck
Protocol: Micro-PET scan was performed on postoperative days 2, 4, 6, 8, 12, 20, and 28 in the IL-10 gene therapy group and days 2, 4, 6, and 8 in the control group. Recipient rabbits were intravenously injected with 1 mCi of [^18F]FHBG PET reporter probe. After a 1-h rest to allow for tracer uptake and clearance, the rabbits were imaged with a micro-PET-P4 (Primate P4; Concorde Microsystems, Inc., Knoxville, Tenn., USA) for 45 min over the neck and chest. Micro-PET image data were reconstructed by filtered back-projection and were reoriented into short, vertical, and horizontal long axis slices. From regions of interest on the anterolateral wall (short axis cut), derived counts/pixel/min were converted to counts/ml/min using a calibration constant obtained from scanning a cylindrical phantom. The regions-of-interest (ROI) counts/ml/min were converted to counts/g/min (assuming a tissue density of 1 g/ml) and divided by the injected dose to obtain an image ROI-derived [^18F]FHBG percentage injected dose per gram of heart (% ID/g). The total myocardial accumulation of [^18F]FHBG was corrected for background activity in each region of interest, summed for the 12 slices, and expressed as % ID=(total activity in 12 regions of interest (ROI), left ventricle (LV) (MBq)-total activity in 12 ROI BG (MBq))/injected dose (MBq)×100. […]

[2] = test system: wild-type HSV1-tk and HSV1-sr39tk PET reporter genes; experiment: In vivo imaging of PET reporter genes with reporter probes
Text: Two main categories of substrates, uracil nucleoside derivatives labelled with radioactive iodine (e.g., I-labelled 2′fluoro-2′-deoxy-1-β-D-arabinofura-nosyl-5-iodo-uracilc(FIAU)), and acycloguanosine derivatives labelled with radioactive ^18F-fluorine (e.g., 9-[(4-[^18F]-fluoro-3-hydroxymethylbutyl)guanine (FHBG) and 8-[^18F]fluropenciclorivr (FPCV)), have been investigated as reporter probes for imaging HSV1-tk reporter gene expression.

2-[^18F]fluoro-2-deoxy-d-glucose [[^18F]FDG]
localization of probe activity on micro-PET [1]: in the donor heart as well as in the recipient's heart and skeletal muscle of limb and neck

Nc1nc2c(ncn2CCC(CO)C[18F])c(=O)[nH]1 (stereo not drawn) [[^18F]FHBG, 9-(4-[^18F]fluoro-3-hydroxymethylbutyl)guanine]
localization of probe activity on micro-PET [1]: only in targeted donor heart in the neck | effectiveness as probe for in vivo imaging, compared with FPCV [2]: more effective probe
